The target of assay [1] is T1, G12C K-Ras4B (1-169) (Homo sapiens, UniProt P01116, G12C).
T1 construct: G12C K-Ras4B (1-169) protein, which was a KRAS G12C mutant; His tag (N, cleaved yes); made in house; host or cells: E. coli BL21 (DE3)
The assay is described as follows: Binding to KRAS G12C mutant, compound binding rate by LC-MS. The conditions noted are these: final compound concentration 2 μM, 1 μM protein, 2 hours at 25° C. A digest of the protocol:
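Covalent labelling at 2 μM final compound on a mix of 1 μM each wild-type and G12C K-Ras4B (1-169) (E. coli-expressed, tag removed) in 1×TBS, 0.1 mM TCEP, 2 h at 25° C., quenched with formic acid. Intact-protein ESI Q-TOF LC-MS; binding rate from adduct vs unbound protein signal, graded A–E in 20% bands.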

For assay [2], the target named is T2, KRAS G12C mutant (Homo sapiens, UniProt P01116, G12C).
T2 construct: 50 μM G12C K-Ras4B (1-169) protein and 1 mM BODIPY® FL GDP; His tag (N, cleaved yes); made in house; host or cells: E. coli BL21 (DE3)
The assay is described as follows: Inhibition of SOS1-mediated nucleotide (GDP-GTP) exchange reaction of KRAS G12C mutant, BODIPY FL GDP fluorescence. Format: biochemical. Particulars: preincubated 25° C. 4 hours with 25 nM KRAS G12C bound with BODIPY FL GDP; SOS1 100 nM, GppNHp 1 μM, 30 minutes. A digest of the protocol: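 KRAS G12C (1-169) loaded with BODIPY FL GDP (25 nM) was preincubated with compound (5% DMSO) for 4 h at 25 °C. Exchange then ran 30 min with SOS1 (564-1049, 100 nM) and 1 µM GppNHp. IC50 came from the 485/520 nm fluorescence change, normalized to DMSO and no-GppNHp controls.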

Assay [3] deals with NCI-H358 cells. In words: Growth inhibition of KRAS-G12C mutant cell line NCI-H358 (CellTiter-Glo 2.0). Format: cell-based. The conditions noted are these: Homo sapiens, 72 h; NCI-H358, 3-day culture with compound. How it is done:
KRAS-G12C mutant human lung cancer cell line NCI-H358 cells (ATCC, Cat #: CRL-5807) were suspended in RPMI1640 medium (manufactured by Fujifilm Wako Pure Chemical Corp.) containing 10% fetal bovine serum. The cell suspension was seeded at 500 cells/well into the wells of a 384-well flat-bottom microplate and cultured at 37° C. for 1 day in an incubator containing 5% CO2. The compound of the present invention was dissolved in DMSO and diluted with DMSO such that the concentration of the test compound was 500 times the final concentration. The solution of the test compound in DMSO was diluted with the medium used for suspending the cells, and the resultant was added to each well of the cell culture plate such that the final concentration of DMSO was 0.2%, followed by culture at 37° C. for another 3 days in an incubator containing 5% CO2.
Growth inhibition rate (%)=(C−T)/(C)×100 • T: the emission intensity in a well supplemented with the test compound. • C: the emission intensity in a well not supplemented with the test compound.

Consider `C=CC(=O)N1CC(NC(=O)c2cnc(Cc3cc(C(C)(C)C)c(Cl)cc3O)n2C)C1` [Example 97, N-(1-Acryloylazetidin-3-yl)-2-(5-(tert-butyl)-4-chloro-2-hydroxybenzyl)-1-methyl-1H-imidazole-5-carboxamide], for which the “binding rate for G12C K-Ras4B (1-169)” value in assay [1] is recorded as “A (80% or more)”. Also, the half-maximal inhibitory concentration (IC50) in assay [2] was determined as 22 nM; in assay [3], 683 nM.
For `C=CC(=O)N1CC(NC(=O)c2c(C)nc(CNc3cc(C(C)(C)C)c(C)cc3O)n2C(C)C)C1` [Example 78, N-(1-Acryloylazetidin-3-yl)-2-(((5-(tert-butyl)-2-hydroxy-4-methylphenyl)amino)methyl)-1-isopropyl-4-methyl-1H-imidazole-5-carboxamide] the same measures were “A (80% or more)”, 50 nM and 993 nM.
The corresponding values for `C=CC(=O)N1CC(NC(=O)c2c(C)nc(CNc3cc(C(C)(C)C)c(Cl)cc3O)n2CCC)C1` [Example 44, N-(1-Acryloylazetidin-3-yl)-2-(((5-(tert-butyl)-4-chloro-2-hydroxyphenyl)amino)methyl)-4-methyl-1-propyl-1H-imidazole-5-carboxamide] are “A (80% or more)”, 9 nM and 511 nM.
As to `C=CC(=O)N1CC(NC(=O)c2ccc(CNc3cc(C(C)(C)C)c(Cl)cc3O)o2)C1` [Example 1, N-(1-Acryloylazetidin-3-yl)-5-(((5-(tert-butyl)-4-chloro-2-hydroxyphenyl)amino)methyl)furan-2-carboxamide], the “binding rate for G12C K-Ras4B (1-169)” value in assay [1] is recorded as “A (80% or more)”. In addition, the 50% inhibitory concentration (IC50) turned out to be 326 nM in assay [2] and 4110 nM in assay [3].
For `C=CC(=O)N1CC(NC(=O)c2cnc(CNc3cc(C(C)(C)C)c(Cl)cc3O)n2CCOC)C1` [Example 37, N-(1-Acryloylazetidin-3-yl)-2-(((5-(tert-butyl)-4-chloro-2-hydroxyphenyl)amino)methyl)-1-(2-methoxyethyl)-1H-imidazole-5-carboxamide], in assay [1], the “binding rate for G12C K-Ras4B (1-169)” value is “A (80% or more)”. Moreover, the IC50 in assay [2] came out at 13 nM; in assay [3], 321 nM.
For `C=CC(=O)N1CC(NC(=O)c2c(C)nc(CNc3cc(C(C)(C)C)c(Cl)cc3O)n2CC)C1` [Example 41, N-(1-Acryloylazetidin-3-yl)-2-(((5-(tert-butyl)-4-chloro-2-hydroxyphenyl)amino)methyl)-1-ethyl-4-methyl-1H-imidazole-5-carboxamide] the same measures were “A (80% or more)”, 8 nM and 281 nM.
For the molecule `C=CC(=O)N1CC(NC(=O)c2c(C)nc(Cc3cc(C(C)(C)C)c(Cl)cc3O)n2C)C1` [Example 92, N-(1-Acryloylazetidin-3-yl)-2-(5-(tert-butyl)-4-chloro-2-hydroxybenzyl)-1,4-dimethyl-1H-imidazole-5-carboxamide], the “binding rate for G12C K-Ras4B (1-169)” value in assay [1] is “B (60% or more and less than 80%)”. The 50% inhibitory concentration (IC50) was found to be 55 nM in assay [2] and 1100 nM in assay [3].
On to `C=CC(=O)N1CC(NC(=O)c2c(C)nc(CNc3cc(C(C)(C)C)c(Cl)cc3O)n2C(C)C)C1` [Example 42, N-(1-Acryloylazetidin-3-yl)-2-(((5-(tert-butyl)-4-chloro-2-hydroxyphenyl)amino)methyl)-1-isopropyl-4-methyl-1H-imidazole-5-carboxamide], for which the “binding rate for G12C K-Ras4B (1-169)” value in assay [1] was “A (80% or more)”. Also, the results for the IC50 in assay [2] and in assay [3] were 11 nM and 301 nM, respectively.
For `C=CC(=O)N1CC(NC(=O)c2c(C)nc(CNc3cc(C(C)(C)C)c(Cl)cc3O)n2Cc2ccccc2)C1` [Example 40, N-(1-Acryloylazetidin-3-yl)-1-benzyl-2-(((5-(tert-butyl)-4-chloro-2-hydroxyphenyl)amino)methyl)-4-methyl-1H-imidazole-5-carboxamide] the same measures were “A (80% or more)”, 13 nM and 535 nM.
The corresponding values for `C=CC(=O)N1CC(NC(=O)c2c(C)nc(CNc3cc(C(C)(C)C)c(Cl)cc3O)n2C2CCCC2)C1` [Example 45, N-(1-Acryloylazetidin-3-yl)-2-(((5-(tert-butyl)-4-chloro-2-hydroxyphenyl)amino)methyl)-1-cyclopentyl-4-methyl-1H-imidazole-5-carboxamide] are “A (80% or more)”, 16 nM and 576 nM.
For the molecule `C=CC(=O)N1CC(NC(=O)c2c(C)nc(CNc3cc(C(C)(C)C)c(Cl)cc3O)n2Cc2cccnc2)C1` [Example 46, N-(1-Acryloylazetidin-3-yl)-2-(((5-(tert-butyl)-4-chloro-2-hydroxyphenyl)amino)methyl)-4-methyl-1-(pyridin-3-ylmethyl)-1H-imidazole-5-carboxamide], the “binding rate for G12C K-Ras4B (1-169)” value in assay [1] is “A (80% or more)”. The IC50 in assay [2] was 5 nM; in assay [3], 916 nM.
In the case of `C=CC(=O)N1CC(NC(=O)c2c(C)nn(Cc3cc(C(C)(C)C)c(Cl)cc3O)c2C)C1` [Example 96, N-(1-Acryloylazetidin-3-yl)-1-(5-(tert-butyl)-4-chloro-2-hydroxybenzyl)-3,5-dimethyl-1H-pyrazole-4-carboxamide], the “binding rate for G12C K-Ras4B (1-169)” value in assay [1] was “A (80% or more)”. Moreover, the IC50 in assay [2] is 65 nM; in assay [3], 1360 nM.
Consider `C=CC(=O)N1CC(NC(=O)c2cnc(CNc3cc(C(C)(C)C)c(Cl)cc3O)n2CCN(C)C)C1` [Example 38, N-(1-Acryloylazetidin-3-yl)-2-(((5-(tert-butyl)-4-chloro-2-hydroxyphenyl)amino)methyl)-1-(2-(dimethylamino)ethyl)-1H-imidazole-5-carboxamide], for which, in assay [1], the “binding rate for G12C K-Ras4B (1-169)” value is on record as “A (80% or more)”. In addition, the IC50 was determined as 9 nM in assay [2] and 708 nM in assay [3].
Turning to `C=CC(=O)N1CC(N(C)C(=O)c2nc(CNc3cc(C(C)(C)C)c(Cl)cc3O)cs2)C1` [Example 29, N-(1-Acryloylazetidin-3-yl)-4-(((5-(tert-butyl)-4-chloro-2-hydroxyphenyl)amino)methyl)-N-methylthiazole-2-carboxamide], the “binding rate for G12C K-Ras4B (1-169)” value in assay [1] is recorded as “A (80% or more)”. Besides, the IC50 was 12 nM in assay [2] and 1110 nM in assay [3].
The corresponding values for `C=CC(=O)N1CC(NC(=O)c2c(C)nc(CNc3cc(C(C)(C)C)c(C)cc3O)n2C)C1` [Example 76, N-(1-Acryloylazetidin-3-yl)-2-(((5-(tert-butyl)-2-hydroxy-4-methylphenyl)amino)methyl)-1,4-dimethyl-1H-imidazole-5-carboxamide] are “A (80% or more)”, 17 nM and 399 nM.
For `C=CC(=O)N1CC(NC(=O)c2sc(CNc3cc(C(C)(C)C)c(Cl)cc3O)nc2C)C1` [Example 20, N-(1-Acryloylazetidin-3-yl)-2-(((5-(tert-butyl)-4-chloro-2-hydroxyphenyl)amino)methyl)-4-methylthiazole-5-carboxamide] the same measures were “A (80% or more)”, 13 nM and 658 nM.

For orientation: IC50 means the point on the concentration scale where inhibition reaches its midpoint.

The record behind these values is patent US12479834B2, “Phenol compound or salt thereof” (TAIHO PHARMACEUTICAL CO., LTD., priority 2019, dated 2025).
